In patent US4130709A, “Pleuromutilin glycoside derivatives” (Eli Lilly and Company, priority 1977, dated 1978):
≈ marks a conversion by molar mass, not a printed value.

Columns and labels:
[1] = test system: Pasteurella hemolytica; assay: in vitro tests against Pasteurella hemolytica; format: cell-based
[2] = toxicity (LD50) on intraperitoneal injection in mice; conditions: mouse, in vivo, ip; intraperitoneal injection, mice
[3] = test system: Treponema hyodysenteriae; assay: in vitro agar plate test against Treponema hyodysenteriae; conditions: four days anaerobic
[4] = test system: Spiroplasma citri; assay: in vitro inhibition of Spiroplasma citri measured by a color reaction; format: cell-based; parameters: key to Activity (color reaction): Red (R) includes complete inhibition; red-orange (RO) indicates partial inhibition; yellow (Y) indicates no inhibition
Protocol: In another important aspect, the compounds of this invention are active against Spiroplasmas. Spiroplasma citri is the causative agent of citrus-stubborn disease; another Spiroplasma, corn-stunt Spiroplasma, affects the growth of corn. Table VII summarizes the in vitro activity of representative compounds of the present invention (R^2 =H in this group) against Spiroplasma citri. In this test, inhibition of S. citri is measured by a color reaction. Red (R) includes complete inhibition; red-orange (RO) indicates partial inhibition; and yellow (Y) indicates no inhibition.

[5] = test system: Pasteurella multocida (turkey); assay: in vitro activity against Pasteurella multocida (turkey); format: cell-based
Source text: (§1) The activity of representative compounds of this invention (R^2 =H in group tested) against P. multocida and the Pseudomonas sp. is summarized in Table VI.

[6] = test system: Fusobacterium necrophorum; assay: standard agar-dilution test, anaerobic bacteria; format: cell-based; conditions: 24-hour incubation, read-out: MIC
[7] = test system: Clostridium perfringens; assay: microbe, parasite or virus in culture; format: cell-based; conditions: 24 h
[8] = test system: Eubacterium aerofaciens; assay: standard agar-dilution test, anaerobic bacteria; format: cell-based; conditions: Collinsella aerofaciens; Eubacterium aerofaciens; 24-hour incubation; read-out: MIC
[9] = test system: Bacteroides melaninogenicus 2736; assay: standard agar-dilution test, anaerobic bacteria; format: cell-based; conditions: Bacteroides melaninogenicus 2736; 24-hour incubation; read-out: MIC
[10] = test system: Bacteroides fragilis 111; assay: standard agar-dilution test, anaerobic bacteria; format: cell-based; conditions: Bacteroides fragilis 111; 24-hour incubation; read-out: MIC
[11] = test system: Peptostreptococcus intermedius; assay: standard agar-dilution test, anaerobic bacteria; format: cell-based; conditions: Peptostreptococcus intermedius; 24-hour incubation; read-out: MIC
[12] = test system: Peptococcus asaccharolyticus; assay: standard agar-dilution test, anaerobic bacteria; format: cell-based; conditions: Peptoniphilus asaccharolyticus, 24-hour incubation
[13] = test system: Peptococcus prevoti; assay: standard agar-dilution test, anaerobic bacteria; format: cell-based; conditions: Peptococcus prevoti; 24-hour incubation; read-out: MIC
[14] = test system: Bacteroides thetaiotaomicron; assay: standard agar-dilution test, anaerobic bacteria; format: cell-based; conditions: 24-hour incubation
Protocol: (§2) Table IV summarizes the activity of typical compounds of this invention, as determined by the standard agar-dilution test.
(§3) *Endpoint read after 24-hour incubation

[15] = test system: Clostridium septicum; assay: standard agar-dilution test, anaerobic bacteria; format: cell-based; conditions: 24-hour incubation
Protocol: as §2, §3

[16] = test system: Peptostreptococcus anaerobius; assay: standard agar-dilution test, anaerobic bacteria; format: cell-based; conditions: 24-hour incubation
[17] = test system: Pasteurella multocida (bovine); assay: in vitro activity against Pasteurella multocida (bovine); format: cell-based
Source text: as §1

[18] = test system: Bacteroides vulgatis; assay: standard agar-dilution test, anaerobic bacteria; format: cell-based; conditions: Bacteroides vulgatis; 24-hour incubation; read-out: MIC
[19] = test system: Pseudomonas sp. (fish); assay: in vitro activity against Pseudomonas sp. (fish); format: cell-based
Source text: P. multocida, for example, is a causative agent of respiratory infection in cattle, poultry and swine. P. hemolytica is a major cause of respiratory disease in cattle. The activity of representative compounds of this invention (R^2 =H in group tested) against P. multocida and the Pseudomonas sp. is summarized in Table VI.

[20] = test system: Fusobacterium symbiosum; assay: standard agar-dilution test, anaerobic bacteria; format: cell-based; conditions: Fusobacterium symbiosum; 24-hour incubation; read-out: MIC
[21] = test system: Staphylococcus aureus (H-Heatley) NRRL B-314; assay: in vitro turbidometric assay (Autoturb Microbiological Assay System) against Staphylococcus aureus; format: cell-based; conditions: nutrient broth pH 7, approximately 4 hours at 37° C., A-40104 factor A as standard
Protocol: The compounds are conveniently tested against a typical gram-positive organism, Staphylococcus aureus, using a turbidometric assay on a semi-automated system (Autoturb Microbiological Assay System, Elanco) described by N. R. Kuzel and F. W. Kavanagh in J. Pharmaceut. Sci, 60 (5), 764 and 767 (1971). In testing these compounds, the following parameters were used: Staphylococcus aureus (H-Heatley) NRRL B-314 in a nutrient broth medium (pH 7), incubated for approximately 4 hours at 37° C. Test samples and A-40104 factor A, which is used as a standard, were dissolved in water. The standard was presented to the Autoturb carrousel at concentrations of 1.25, 2.50, 3.75, 5.00 and 6.25 mcg/ml. Test compounds were diluted to contain approximately 2.5 to 5.0 mcg of activity per ml, as presented to the carrousel. The units of activity of some of the typical compounds of this invention (R^2 =H in group tested) in this in vitro assay are summarized in Table I

[22] = test system: Bacteroides corrodens; assay: standard agar-dilution test, anaerobic bacteria; format: cell-based; conditions: Eikenella corrodens; Bacteroides corrodens; 24-hour incubation; read-out: MIC
[23] = test system: Actinomyces israelii; assay: standard agar-dilution test, anaerobic bacteria; format: cell-based; conditions: 24-hour incubation
[24] = test system: Bacteroides fragilis 1936B; assay: standard agar-dilution test, anaerobic bacteria; format: cell-based; conditions: Bacteroides fragilis 1936B; 24-hour incubation; read-out: MIC
[25] = test system: Bacteroides melaninogenicus 1856/28; assay: standard agar-dilution test, anaerobic bacteria; format: cell-based; conditions: Prevotella intermedia; Bacteroides melaninogenicus 1856/28; 24-hour incubation; read-out: MIC
[26] = test system: Bacteroides fragilis 1877; assay: standard agar-dilution test, anaerobic bacteria; format: cell-based; conditions: Bacteroides fragilis 1877; 24-hour incubation; read-out: MIC
[27] = test system: Mycoplasma hyorhinis; assay: in vitro broth-dilution studies, mycoplasma; format: cell-based
Source text: (§4) The minimal inhibitory concentrations (MIC's) of a number of typical compounds of the present invention (R^2 =H in group tested) against various mycoplasma species, as determined by in vitro broth-dilution studies, are summarized in Table V.

[28] = test system: Mycoplasma synoviae; assay: in vitro broth-dilution studies, mycoplasma; format: cell-based; conditions: Mycoplasmopsis synoviae
Source text: as §4

[29] = test system: Mycoplasma gallisepticum; assay: in vitro broth-dilution studies, mycoplasma; format: cell-based; conditions: Mycoplasmoides gallisepticum
Source text: as §4

[30] = test system: Mycoplasma hyopneumoniae; assay: in vitro broth-dilution studies, mycoplasma; format: cell-based; conditions: Mesomycoplasma hyopneumoniae
Source text: as §4

For `CC[C@]1(C)C[C@@H](OC(=O)CS[C@@H]2OC[C@@H](O)[C@H](O)[C@H]2O)[C@]2(C)[C@H](C)CC[C@]3(CCC(=O)[C@H]32)[C@@H](C)[C@@H]1O`, the MIC [1] was 10.4 mg/L (≈ 19.7 µM), the LD50 [2] was over 1500 mg/kg and the inhibition of growth ([3]; 0.5 mcg/ml agar concentration) was “inhibited growth”. For the same compound, the inhibition of growth ([3]; 5.0 mcg/ml agar concentration) was “inhibited growth”, the inhibition of growth ([3]; 50 mcg/ml agar concentration) was “inhibited growth” and the MIC ([4]; Spiroplasma citri, in vitro, read-out: inhibits the growth of S. citri at levels as low as) was at least 0.01 mg/L.
For `C=C[C@]1(C)C[C@@H](OC(=O)CS[C@@H]2OC[C@@H](OC(C)=O)[C@H](OC(C)=O)[C@H]2OC(C)=O)[C@]2(C)[C@H](C)CC[C@]3(CCC(=O)[C@H]32)[C@@H](C)[C@@H]1O` [Compound 1, 14-deoxy-14-[(2,3,4-tri-O-acetyl-β-D-xylopyranosyl)thioacetoxy]mutilin], the MIC [5] was 50 mg/L (≈ 76.6 µM), the MIC [6] was at most 0.5 mg/L and the MIC [7] was 16 mg/L (≈ 24.5 µM). It also gave an MIC [8] of 16 mg/L (≈ 24.5 µM), an MIC [9] of 2 mg/L (≈ 3.06 µM) and an MIC [10] of 8 mg/L (≈ 12.3 µM). For the same compound, the MIC [11] was at most 0.5 mg/L, the MIC [12] was at most 0.5 mg/L and the MIC [13] was at most 0.5 mg/L. It also gave an MIC [14] of 8 mg/L (≈ 12.3 µM), an MIC [15] of at most 0.5 mg/L and an MIC [16] of at most 0.5 mg/L. For the same compound, the MIC [17] was under 50 mg/L, the MIC [18] was 4 mg/L (≈ 6.13 µM) and the MIC [19] was 12.5 mg/L (≈ 19.1 µM). For the same compound, the MIC [20] was 4 mg/L (≈ 6.13 µM), the “Units of Activity” value [21] was 568 to 579 µg/mg and the MIC [22] was 4 mg/L (≈ 6.13 µM). It also gave an MIC [23] of at most 0.5 mg/L, an MIC [24] of 8 mg/L (≈ 12.3 µM) and an MIC [25] of over 128 mg/L. For the same compound, the “Activity (color reaction)” value ([4]; 0.01 ppm) was “Y,RO”, the “Activity (color reaction)” value ([4]; 0.05 ppm) was “--,R” and the “Activity (color reaction)” value ([4]; 0.1 ppm) was “R,R”. For the same compound, the “Activity (color reaction)” value ([4]; 1.0 ppm) was “R,R” and the MIC [26] was 4 mg/L (≈ 6.13 µM).
With `CC[C@]1(C)C[C@@H](OC(=O)CS[C@@H]2OC[C@@H](OC(C)=O)[C@H](OC(C)=O)[C@H]2OC(C)=O)[C@]2(C)[C@H](C)CC[C@]3(CCC(=O)[C@H]32)[C@@H](C)[C@@H]1O` [Compound 6, 14-deoxy-14-[(2,3,4-tri-O-acetyl-β-D-xylopyranosyl)thioacetoxy]-19,20-dihydromutilin] the MIC [5] was under 50 mg/L, the MIC [6] was 4 mg/L (≈ 6.11 µM) and the MIC [7] was over 128 mg/L. The MIC [8] was 16 mg/L (≈ 24.4 µM), the MIC [9] was 4 mg/L (≈ 6.11 µM) and the MIC [10] was 2 mg/L (≈ 3.05 µM). The MIC [11] was 4 mg/L (≈ 6.11 µM), the MIC [12] was 4 mg/L (≈ 6.11 µM) and the MIC [13] was 2 mg/L (≈ 3.05 µM). For the same compound, the MIC [14] was 8 mg/L (≈ 12.2 µM), the MIC [15] was 1 mg/L (≈ 1.53 µM) and the MIC [16] was at most 0.5 mg/L. For the same compound, the MIC [17] was under 50 mg/L, the MIC [18] was 4 mg/L (≈ 6.11 µM) and the MIC [19] was 12.5 mg/L (≈ 19.1 µM). The MIC [20] was 4 mg/L (≈ 6.11 µM), the “Units of Activity” value [21] was 746 to 883 µg/mg and the MIC [22] was 4 mg/L (≈ 6.11 µM). The MIC [27] was 0.39 mg/L (≈ 0.596 µM), the MIC [28] was 0.78 mg/L (≈ 1.19 µM) and the MIC [29] was 0.78 mg/L (≈ 1.19 µM). For the same compound, the MIC [30] was at most 0.15 mg/L, the MIC [23] was 2 mg/L (≈ 3.05 µM) and the MIC [24] was 8 mg/L (≈ 12.2 µM). For the same compound, the MIC [25] was 2 mg/L (≈ 3.05 µM), the “Activity (color reaction)” value ([4]; 0.01 ppm) was “RO” and the “Activity (color reaction)” value ([4]; 0.05 ppm) was “R”. The “Activity (color reaction)” value ([4]; 0.1 ppm) was “R”, the “Activity (color reaction)” value ([4]; 1.0 ppm) was “R” and the MIC [26] was 2 mg/L (≈ 3.05 µM).
